From patent US20130177609A1, “Compositions and Methods for Increasing Bioavailability of Topical Ophthalmic Drugs” (priority 2008, published 2013)
Read-outs that look alike come from different tables or passages of the source.

Assay: Example 2: ocular tissue pharmacokinetics after topical dose, decreasing dose volume at same total amount of drug
Type: in vivo, New Zealand Composite pigmented rabbits
Details: for DNAUC / AUC(0-t) / Cmax / Tmax: topical ocular; for exposure (absolute Cmax and AUC): constant 10 μg dose, varying volume/concentration
Experimental: This study was carried out using a non-crossover design involving a total of 84 New Zealand Composite pigmented rabbits arbitrarily divided into 3 groups of 28 rabbits each. Three compositions were prepared as aqueous suspensions substantially as disclosed above comprising 1, 0.33, and 0.1 mg/mL BOL-303242-X, respectively. Each composition also contained 100 mg/mL PEG 3350 and 10 mg/mL Tween® 80. The compositions were shipped to the test site as a ready-to-use suspension.
The test compositions were administered so as to achieve 10-μg topical dosed drug amount in each eye of all the study animals. The concentration of the composition and the instillation volume were varied between the three study groups to keep the dosed drug amount constant. Animals in Group 1 received 10 μL/eye of the 1.0 mg/mL composition; animals comprising Groups 2 and 3 received 30 μL/eye of the 0.33 mg/mL composition and 100 μL/eye of the 0.1 mg/mL composition, respectively.
At predetermined time intervals after dosing, rabbits (four per collection time) were euthanized after anesthetization and the eyes enucleated and dissected. Tear, aqueous humor, conjunctiva, cornea, and iris/ciliary body samples were collected from both eyes of each animal and stored frozen until being shipped on dry ice to the analytical laboratory. Samples were collected at 0.083, 0.25, 0.5, 1, 2, 4, and 6 hours after dosing. BOL-303242-X concentrations in the above tissues and matrices were determined by LC/MS/MS. For the purpose of calculating mean concentrations, a value of ½ the LLQ was assigned to all samples with concentrations below the LLQ (BLQ). In addition, any sample with a measured concentration that was more than 10-fold higher than the median concentration in the respective sample pool was considered an outlier, and was not included in any calculations. Similarly, concentrations that were 10-fold lower than the median value and below the LLQ were also considered to be outliers. The number of study samples that were determined to be outliers using the above criteria for each tissue/matrix in this study was: tears=14/144; conjunctiva=3/144; cornea=1/144; aqueous humor 2/144 and iris=4/144 samples.
Pharmacokinetic analysis of the composite concentration-versus-time data was performed using non-compartmental methods (WinNonlin version 5.2). Due to the destructive nature of the sampling regimen employed in this study, average composite data were used in the pharmacokinetic analysis.

[1] = Conjunctiva, 10 μL/eye of 1 mg/mL (10 μg)
[2] = Conjunctiva, 30 μL/eye of 0.33 mg/mL (10 μg)
[3] = Conjunctiva, 100 μL/eye of 0.1 mg/mL (10 μg)
[4] = Cornea, 10 μL/eye of 1 mg/mL (10 μg)
[5] = Cornea, 30 μL/eye of 0.33 mg/mL (10 μg)
[6] = Cornea, 100 μL/eye of 0.1 mg/mL (10 μg)
[7] = Iris/Ciliary Body, 30 μL/eye of 0.33 mg/mL (10 μg)
[8] = Iris/Ciliary Body, 100 μL/eye of 0.1 mg/mL (10 μg)
[9] = New Zealand Composite pigmented, rabbit, aqueous humor, topical or ocular, 10 ug, 10 μL/eye of 1 mg/mL (10 μg)
[10] = New Zealand Composite pigmented, rabbit, aqueous humor, topical or ocular, 10 ug, 30 μL/eye of 0.33 mg/mL (10 μg)
[11] = New Zealand Composite pigmented, rabbit, aqueous humor, topical or ocular, 10 ug, 100 μL/eye of 0.1 mg/mL (10 μg)
[12] = New Zealand Composite pigmented, rabbit, conjunctiva, topical or ocular, 10 ug, 10 μL/eye of 1 mg/mL (10 μg)
[13] = New Zealand Composite pigmented, rabbit, conjunctiva, topical or ocular, 10 ug, 30 μL/eye of 0.33 mg/mL (10 μg)
[14] = New Zealand Composite pigmented, rabbit, conjunctiva, topical or ocular, 10 ug, 100 μL/eye of 0.1 mg/mL (10 μg)
[15] = New Zealand Composite pigmented, rabbit, cornea, topical or ocular, 10 ug, 10 μL/eye of 1 mg/mL (10 μg)
[16] = New Zealand Composite pigmented, rabbit, cornea, topical or ocular, 10 ug, 30 μL/eye of 0.33 mg/mL (10 μg)
[17] = New Zealand Composite pigmented, rabbit, cornea, topical or ocular, 10 ug, 100 μL/eye of 0.1 mg/mL (10 μg)
[18] = New Zealand Composite pigmented, rabbit, iris/ciliary body, topical or ocular, 10 ug, 30 μL/eye of 0.33 mg/mL (10 μg)
[19] = New Zealand Composite pigmented, rabbit, iris/ciliary body, topical or ocular, 10 ug, 100 μL/eye of 0.1 mg/mL (10 μg)
[20] = New Zealand Composite pigmented, rabbit, tears, topical or ocular, 10 ug, 10 μL/eye of 1 mg/mL (10 μg)
[21] = New Zealand Composite pigmented, rabbit, tears, topical or ocular, 10 ug, 30 μL/eye of 0.33 mg/mL (10 μg)
[22] = New Zealand Composite pigmented, rabbit, tears, topical or ocular, 10 ug, 100 μL/eye of 0.1 mg/mL (10 μg)
[23] = Tears, 10 μL/eye of 1 mg/mL (10 μg)
[24] = Tears, 30 μL/eye of 0.33 mg/mL (10 μg)
[25] = Tears, 100 μL/eye of 0.1 mg/mL (10 μg)

Cc1ccc2c(NCC(O)(CC(C)(C)c3cc(F)cc4c3OCC4)C(F)(F)F)cccc2n1 (stereo not drawn) [BOL-303242-X]
DNAUC (Aqueous Humor, 10 μL/eye of 1 mg/mL (10 μg)): 0.800 ng*hr/g ÷ μg dose | DNAUC (Aqueous Humor, 30 μL/eye of 0.33 mg/mL (10 μg)): 0.300 ng*hr/g ÷ μg dose | DNAUC (Aqueous Humor, 100 μL/eye of 0.1 mg/mL (10 μg)): 0.700 ng*hr/g ÷ μg dose | AUC(0-t) [1]: 0.742 µg·h/g | DNAUC [1]: 74.2 ng*hr/g ÷ μg dose | AUC(0-t) [2]: 0.575 µg·h/g | DNAUC [2]: 57.5 ng*hr/g ÷ μg dose | AUC(0-t) [3]: 0.212 µg·h/g | DNAUC [3]: 21.2 ng*hr/g ÷ μg dose | AUC(0-t) [4]: 1.01 µg·h/g | DNAUC [4]: 101 ng*hr/g ÷ μg dose | AUC(0-t) [5]: 1.02 µg·h/g | DNAUC [5]: 102 ng*hr/g ÷ μg dose | AUC(0-t) [6]: 0.745 µg·h/g | DNAUC [6]: 74.5 ng*hr/g ÷ μg dose | DNAUC (Iris/Ciliary Body, 10 μL/eye of 1 mg/mL (10 μg)): 27.3 ng*hr/g ÷ μg dose | AUC(0-t) (Iris/Ciliary Body, 10 μL/eye of 1 mg/mL (10 μg), heavily influenced by 2 animals at 2 hour): 0.273 µg·h/g | AUC(0-t) [7]: 0.0206 µg·h/g | DNAUC [7]: 2.06 ng*hr/g ÷ μg dose | AUC(0-t) [8]: 0.0186 µg·h/g | DNAUC [8]: 1.86 ng*hr/g ÷ μg dose | AUC(0-t) (New Zealand Composite pigmented, rabbit, aqueous humor, topical or ocular, 10 ug, Aqueous Humor, 10 μL/eye of 1 mg/mL (10 μg), read-out: AUC(0-t)): 8 ng·h/mL | AUC(0-t) (New Zealand Composite pigmented, rabbit, aqueous humor, topical or ocular, 10 ug, Aqueous Humor, 30 μL/eye of 0.33 mg/mL (10 μg), read-out: AUC(0-t)): 3 ng·h/mL | AUC(0-t) (New Zealand Composite pigmented, rabbit, aqueous humor, topical or ocular, 10 ug, Aqueous Humor, 100 μL/eye of 0.1 mg/mL (10 μg), read-out: AUC(0-t)): 7 ng·h/mL | Cmax [9]: 0.17 ng/mL | Tmax [9]: 120 min | Cmax [10]: 0.188 ng/mL | Tmax [10]: 120 min | Cmax [11]: 0.286 ng/mL | Tmax [11]: 120 min | Cmax [12]: 399 ± 100 ng/g | Tmax [12]: 4.98 min | Cmax [13]: 450 ± 269 ng/g | Tmax [13]: 15 min | Cmax [14]: 168 ± 101 ng/g | Tmax [14]: 15 min | Cmax [15]: 527 ± 213 ng/g | Tmax [15]: 30 min | Cmax [16]: 592 ± 297 ng/g | Tmax [16]: 4.98 min | Cmax [17]: 452 ± 129 ng/g | Tmax [17]: 15 min | Tmax (New Zealand Composite pigmented, rabbit, iris/ciliary body, topical or ocular, 10 ug, 10 μL/eye of 1 mg/mL (10 μg)): 120 min | Cmax (New Zealand Composite pigmented, rabbit, iris/ciliary body, topical or ocular, 10 ug, 10 μL/eye of 1 mg/mL (10 μg), heavily influenced by 2 animals at 2 hour): 262 ng/g | Cmax [18]: 41.9 ± 37.8 ng/g | Tmax [18]: 4.98 min | Cmax [19]: 5.92 ± 7.26 ng/g | Tmax [19]: 60 min | Cmax [20]: 247000 ng/g | Tmax [20]: 15 min | Cmax [21]: 32000 ng/g | Tmax [21]: 4.98 min | Cmax [22]: 7170 ng/g | Tmax [22]: 15 min | AUC(0-t) [23]: 60.2 µg·h/g | DNAUC [23]: 6020 ng*hr/g ÷ μg dose | AUC(0-t) [24]: 18.2 µg·h/g | DNAUC [24]: 1820 ng*hr/g ÷ μg dose | AUC(0-t) [25]: 7.74 µg·h/g | DNAUC [25]: 774 ng*hr/g ÷ μg dose | exposure (absolute Cmax and AUC) (cornea, iris/ciliary body and aqueous humor): remained relatively constant | ocular bioavailability (dose volume decreased while drug concentration in the formulation increased proportionally): increases | exposure (absolute Cmax and AUC) (tears): increases as the concentration of the drug in the dose volume increases
